Publication PMC5794978, “Molecular identification, transcript expression, and functional deorphanization of the adipokinetic hormone/corazonin-related peptide receptor in the disease vector, Aedes aegypti” (Scientific Reports, 2018)
“Also recorded” adds a separate entry of the source. Non-standard residues stand in square brackets, D forms with d. Residues, ends and D or L forms follow the SMILES beside them. No end group written: not given here. pGlu = O=C1CC[C@@H](C(=O)O)N1

Target: T1, AedaeACPR-I (Aedes aegypti, UniProt A0A2L0VBG2)
T1 construct: only the ACPR-I transcript yields a complete receptor protein which we functionally deorphanized; expressed in transfected cells; host or cells: CHO-K1 cells stably expressing aequorin, transient transfection with pcDNA3.1+
T1 sequence (A0A2L0VBG2 1-577): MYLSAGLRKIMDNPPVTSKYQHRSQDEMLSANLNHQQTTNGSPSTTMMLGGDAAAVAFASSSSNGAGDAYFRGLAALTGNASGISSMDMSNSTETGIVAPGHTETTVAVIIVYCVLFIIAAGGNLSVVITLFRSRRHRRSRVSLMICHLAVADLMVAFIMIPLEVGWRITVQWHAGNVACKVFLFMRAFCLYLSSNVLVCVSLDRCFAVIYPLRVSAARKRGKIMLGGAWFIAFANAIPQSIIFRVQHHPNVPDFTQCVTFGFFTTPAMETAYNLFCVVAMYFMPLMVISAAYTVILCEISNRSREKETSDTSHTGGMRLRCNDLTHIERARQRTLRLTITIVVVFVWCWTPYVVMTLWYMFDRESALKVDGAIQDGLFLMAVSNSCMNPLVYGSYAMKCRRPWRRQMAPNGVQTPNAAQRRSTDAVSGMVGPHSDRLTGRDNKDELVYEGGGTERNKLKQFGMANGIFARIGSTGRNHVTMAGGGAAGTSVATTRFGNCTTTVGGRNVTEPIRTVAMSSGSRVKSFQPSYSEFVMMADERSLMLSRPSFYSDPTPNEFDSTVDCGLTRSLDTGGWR
Assay: Heterologous receptor functional assay (aequorin bioluminescence) in CHO-K1 cells transiently expressing AedaeACPR-I
Assay type: cell-based
Settings: for Receptor activation (luminescence response): CHO-K1 aequorin cells transiently expressing AedaeACPR-I, doses 10^-12 to 10^-5 M; for EC50: CHOK1-aeq cells transiently expressing AedaeACPR-I, peptide doses 10^-12 to 10^-5 M in quadruplicate, luminescence response, average of multiple independent biological replicates (four independent transfections)
Description: Functional activation of AedaeACPR-I was assayed using a previously established cell culture system involving a recombinant Chinese hamster ovary (CHO)-K1 cell line stably expressing aequorin[35]. […] At 48 hours post-transfection, cells were detached from the culture flasks using Dulbecco’s phosphate buffered saline (DPBS; Wisent Corporation, St. Bruno, QC) containing 5 mM EDTA and resuspended in BSA medium (DMEM-F12 media containing 0.1% bovine serum albumin, 1X antimycotic-antibiotic) to a concentration of 10^6–10^7 cells/mL. Coelenterazine h (Promega, Madison, WI, USA) was added to the cells to a final concentration of 5 μM, and incubated for 3 hours in the dark at room temperature on a stirrer set at 200 rpm. The cell suspension was then diluted 10-fold and incubated at room temperature for an additional hour. Serial dilutions of peptide ligands (Table 1) were prepared in BSA medium (10^−5 to 10^−12 M), and loaded in quadruplicates into 96-well luminescence plates (Greiner Bio-One, Germany). All peptides were commercially synthesized (Genscript, Piscataway, NJ) at a purity >90% and were prepared in dimethyl sulfoxide at a stock concentration of 1 mM. Cells were loaded into each well with an automatic injector unit and luminescence was measured for 20 seconds using a Synergy 2 Multi-Mode Microplate Reader (BioTek, Winooski, VT, USA). BSA medium alone was utilized as a negative control and 5 × 10^−5 M ATP was used as a positive control, which acts on endogenously expressed purinoceptors[36],[37]. EC50 values were calculated in GraphPad Prism 7.02 (GraphPad Software, San Diego, USA) from dose-dependent curves from four independent transfections.
A heterologous receptor functional assay involving CHO-K1 cells was used to validate the cloned receptor as a bona fide ACP receptor. […] Our findings in this study are consistent with past reports, since similar binding specificity of ACP receptors has been observed previously in T. castaneum, A. gambiae, and R. prolixus with EC50 values reported in the low nanomolar range[17],[25]. Additionally, previous research in the aforementioned insects have also observed that the AKH receptors are not activated by ACP or corazonin peptides, and similarly, the corazonin receptors are not activated by ACP or AKH peptides[17],[25],[43],[44].
Figure 4 Functional heterologous receptor assay of CHO-K1 aequorin cells transiently expressing the AedaeACPR-I. (a) Dose dependent effect on the bioluminescence response (mean 0–15 s) after the addition of between 10^−12–10^−5 M doses of A. aegypti ACP, AKH and CRZ peptides. Luminescence is normalized to the BSA control and plotted relative to the maximal response (10^−5 M). […] (b) Kinetics of the bioluminescence response measured between 0–5 s, 6–10 s, and 11–20 s time intervals, following the addition of 1 × 10^−6 M of the above peptides normalized to vehicle control (BSA media). Luminescence is normalized to the BSA control and plotted relative to the maximal response (10^−5 M). Data represent the mean ± standard error (n = 4).

| Compound | Receptor activation (luminescence response) | EC50 [µM] | Receptor activation (luminescence response) (listed as AedaeCAPA-1) | Receptor activation (luminescence response) (listed as AedaePK1) |
| --- | --- | --- | --- | --- |
| CC(C)C[C@H](NC(=O)[C@@H]1CCC(=O)N1)C(=O)N[C@H](C(=O)N[C@@H](Cc1ccccc1)C(=O)N[C@H](C(=O)N1CCC[C@H]1C(=O)N[C@@H](CO)C(=O)N[C@@H](Cc1c[nH]c2ccccc12)C(N)=O)[C@@H](C)O)[C@@H](C)O [AedaeAKH] ([pGlu]LTFTPSW-NH2) | no detectable luminescence indicative of receptor activation; also recorded: No receptor activation was detected | > 10 | – | – |
| C[C@@H](O)[C@H](NC(=O)[C@H](CC(N)=O)NC(=O)[C@H](Cc1c[nH]c2ccccc12)NC(=O)CNC(=O)[C@H](CCCNC(=N)N)NC(=O)[C@H](CO)NC(=O)[C@H](Cc1ccc(O)cc1)NC(=O)[C@H](CCC(N)=O)NC(=O)[C@H](Cc1ccccc1)NC(=O)[C@@H](NC(=O)[C@@H]1CCC(=O)N1)[C@@H](C)O)C(=O)N[C@@H](CC(N)=O)C(N)=O [AedaeCRZ] ([pGlu]TFQYSRGWNTN-NH2) | no detectable luminescence indicative of receptor activation; also recorded: No receptor activation was detected | – | – | – |
| GPTVGLFAFPRV-NH2 [AedaeCAPA1] | No receptor activation was detected | > 10 | no detectable luminescence indicative of receptor activation | – |
| AGNSGANSGMWFGPRL-NH2 [AedaeCAPA-PK1] | – | > 10 | – | no detectable luminescence indicative of receptor activation; also recorded: No receptor activation was detected |
| CC(C)[C@H](NC(=O)[C@@H]1CCC(=O)N1)C(=O)N[C@H](C(=O)N[C@@H](Cc1ccccc1)C(=O)N[C@@H](CO)C(=O)N[C@@H](CCCNC(=N)N)C(=O)N[C@@H](CC(=O)O)C(=O)N[C@@H](Cc1c[nH]c2ccccc12)C(=O)N[C@@H](CC(N)=O)C(=O)N[C@@H](C)C(N)=O)[C@@H](C)O [AedaeACP] ([pGlu]VTFSRDWNA-NH2) | – | 0.0103 | – | – |
